In ChEMBL document CHEMBL3507680, “University of Dundee, Gates Library screen for HepG2 cell viability”:

Test: Human HepG2 cell viability assay in 384 well format
Assay type: toxicity, cell-based
Parameters: dose 125 nL, time 70.5 hour; concentration not given beside the values
Conditions: HepG2 cells, read-out: Inhibition

| Compound | cytotoxicity at 70.5 h [%] |
| --- | --- |
| O=C(c1ccco1)N1CCC(CSCc2ccco2)CC1 | -7.2 |
| CN1C(=O)CC[C@]12CC[C@@H](NCc1ccsc1)CC2 | -5.76 |
| Cc1nc(N(C)C2CCCCC2)ncc1C(C)NC(=O)c1cccnc1 (configuration not stated) | -5.07 |
| Cc1nc(-c2cn(CCN)nn2)n(-c2ccc3c(c2)CCC3)n1 | -4.36 |
| COc1cccc(OC2CN(C(=O)c3ccnc(OC)c3)C2)c1 | -21 |
| COCC(=O)NC(C)c1cccc(Br)c1 (configuration not stated) | -2.66 |
| CCn1ncc2c1C(COC)N(C(=O)CCc1ccccc1)CC2 (configuration not stated) | 11.6 |
| Cc1ccc(S(=O)(=O)Cc2noc([C@@H]3C[C@@H](O)CN3)n2)cc1 | -3.28 |
| O=C(CC1CCCCC1)NC1CCCc2nc(N3CCOCC3)ncc21 (configuration not stated) | 0.0844 |
| Cc1ccc(F)cc1-n1c(CCCN2CCOCC2)n[nH]c1=O | -7.44 |
| CC(C)NS(=O)(=O)c1cc(C(=O)O)cc(-c2ccc(CN(C)C)cc2)c1 | 16.9 |
| CCC(=O)N1CCC2(CC1)COc1ccccc1S(=O)(=O)N(C)C2 | -14.6 |
| Cc1cc(C)c2nc(CN(C)C(C)c3ccncn3)cc(O)c2c1 (configuration not stated) | -4.38 |
| O=C1NC(C(=O)NCc2cccnc2Oc2ccc(F)cc2F)CO1 (configuration not stated) | -18.3 |
| CCN(Cc1nccn1C)C(=O)c1ccc(NCc2ccccc2)nc1 | -2.21 |
| COc1cc(CN2CCN(c3cccc(OC)c3)C(=O)C2)cc(OC)c1 | -1.7 |
| CNC(=O)CN1CCC(NC(=O)Cc2ccccc2OC(C)C)CC1 | -10.8 |
| Cc1nncn1CCNC(=O)C1SCCc2sccc21 (configuration not stated) | -3.34 |
| O=C(c1ccccn1)N1CCOC2(COCCN(Cc3cc[nH]n3)C2)C1 (configuration not stated) | -3.84 |
| O=C(NCC1(Sc2ccccc2)CC1)c1ccc(=O)[nH]n1 | -6.34 |
| COC1CCCN(C(=O)NCC(F)F)C1 (configuration not stated) | -5.69 |
| CC(NC(=O)NC1CCN(Cc2ccncc2)CC1)c1cccc(F)c1 (configuration not stated) | -6.53 |
| CN(C)CC1CCCCN1C(=O)c1ccc(N2CCOCC2)cc1 (configuration not stated) | 0.118 |

| Compound | cytotoxicity at 70.5 h [%] |
| --- | --- |
| CCc1cnc(CN(C)C2CCN(c3sccc3C#N)C2=O)s1 (configuration not stated) | 13.4 |
| CC1(CNS(=O)(=O)c2cccc(C(=O)N3CCSCC3)c2)COC1 | -6.9 |
| O=C(Cn1cncn1)NCC1(O)CCCc2ccccc21 (configuration not stated) | 23.9 |
| Cc1cc(C)nc(NCCCC(=O)NCCn2ccc3ccccc32)n1 | -30.2 |
| Cc1cccc(C(C(=O)N2CCN(C(=O)c3ccc[nH]3)CC2)N(C)C)c1 (configuration not stated) | -8.99 |
| O=C(Nc1cccc2c1CCCC2)c1cccc(CN2CC[C@H](O)C2)c1 | -4.36 |
| CC(C)Oc1ncccc1CNC(=O)NC1CCOc2ccccc21 (configuration not stated) | 8.32 |
| Cc1ccccc1CNC(=O)N1C[C@H]2C[C@H](C(=O)N3CCCC3)[C@@H](C1)O2 | -3.56 |
| COc1ccc(C2CCCCCN2Cc2cn(C)nc2C)cc1 (configuration not stated) | -3.41 |
| N#Cc1ccsc1C(=O)N1CCCCC1Cn1cccn1 (configuration not stated) | 9.01 |
| COCCCNC(=O)Nc1ncc(-c2cccc(OC)c2)n1CCOC | -17.4 |
| COCCN(CC1CCCN(C2Cc3ccccc3C2)C1)C(=O)COC (configuration not stated) | -7.6 |
| CCC(c1ccccc1)N1CCN(CCO)CC1 (configuration not stated) | -6.76 |
| O=C(c1ccno1)N1CCOC[C@H](Oc2ccc(C(F)(F)F)cc2)C1 | -0.658 |
| CC(c1cc(O)nc(NC2CCCC2)n1)n1ncc2ccccc2c1=O (configuration not stated) | -8.36 |
| Cn1cnnc1C1CCN(C(=O)CCOc2ccc(Cl)cc2)CC1 | 19.2 |
| CN(C)S(=O)(=O)N1C[C@H]2CCC[C@@]2(COCC2CCOCC2)C1 | 9.65 |
| COc1cccc(S(=O)(=O)N2CCN(C)[C@@H]3CS(=O)(=O)C[C@@H]32)c1 | -4.74 |
| CN(Cc1nccn1CC(F)(F)F)C(=O)c1cccc(N(C)C)c1 | 0.768 |
| CC(=O)N1CCc2c(nc(N(C)C)nc2NCc2cccs2)C1 | -4.81 |
| CNc1ccc(C(=O)N(C)Cc2ccc3ccccc3n2)cn1 | -8.44 |
| CCc1ccsc1C(=O)N1CCCN(Cc2nccn2CC)CC1 | 5.97 |
| CC(C)NC(=O)[C@H]1C[C@@H]2CN(C(=O)NCc3ccccc3)C[C@H]1O2 | -7.91 |

| Compound | cytotoxicity at 70.5 h [%] |
| --- | --- |
| CCN(CC)C(CNC(=O)c1cccnc1-n1cncn1)c1ccsc1 (configuration not stated) | -7.63 |
| CCS(=O)(=O)c1ccc(N2CCC(NC(=O)c3ccccn3)CC2)cc1 | 29 |
| CCn1c(C)cc(C(=O)Nc2ccccc2CN(C)C(C)=O)c1C | -9.11 |
| c1ccc(-c2cnc(CNCC3CCCN3c3cccnn3)o2)cc1 (configuration not stated) | -5.15 |
| COC1CN(C(=O)NC2CCCC2)CCC(=O)N(C)c2ccccc21 (configuration not stated) | -1.11 |
| CCN1CC(C(=O)N2CCC(Oc3ccccc3C)CC2)CC1=O (configuration not stated) | -7.02 |
| FC(F)Oc1ccc(NCc2nc(C3CC3)no2)c(OC(F)F)c1 | 1.35 |
| CCOC(=O)N(C)C1CCN(Cc2ccsc2)CC1 | 19.3 |
| Fc1cnc(N2CC3(CCN(Cc4ccsc4)C3)C2)nc1 | -6.5 |
| O=c1ccc2c(n1Cc1cccnc1)CCN(Cc1ccoc1)CC2 | 4.28 |
| Cc1cncc(NCc2ccccc2N2CCOCC2)c1 | 3.08 |
| Cc1cnn(CC2CCCCN2Cc2nnsc2Cl)c1 (configuration not stated) | -7.35 |
| CC(C)NC(=O)C1CN(C(=O)c2cccs2)CC12CCOCC2 (configuration not stated) | -1.8 |
| O=C1CC(c2ccc(CO)o2)c2cnn(Cc3ccco3)c2N1 (configuration not stated) | -7.94 |
| CC1CCCN(C(=O)c2csc(S(N)(=O)=O)c2)CC1 (configuration not stated) | -1.03 |
| CCn1ccnc1CN1CCCN(C(=O)COC2CCCCC2)CC1 | -3.09 |
| CN(CCC(=O)N1CCc2sccc2C1)Cc1cnn(C)c1 | -2.72 |
| CCc1cnc(NCC(c2ccncc2)N2CCOCC2)nc1 (configuration not stated) | -6.68 |
| COc1ccc(C(=O)N2CCO[C@H]3[C@H](OCC4CC4)CC[C@@H]32)cc1F | -12.7 |
| Cc1nc(COC[C@H]2CC[C@H]3[C@H](CCN3c3ncccn3)O2)cs1 | -6.71 |
| COc1c(CNCc2cccc(CN3CCOCC3)c2)c(C)nn1C | -10.7 |
| CC(C)(NCc1cccc(C(N)=O)c1)c1ccc2c(c1)OCO2 | -10 |
| COCCN1C(=O)CO[C@H]2CN(Cc3cccc(OC)c3F)C[C@@H]21 | -4.24 |

| Compound | cytotoxicity at 70.5 h [%] |
| --- | --- |
| CCC1CCCCCN1C(=O)c1cc(C#N)c(SC)[nH]c1=O (configuration not stated) | 24.7 |
| CCS(=O)(=O)N1CCO[C@H]2[C@H](Oc3ncccc3F)CC[C@@H]21 | -11.9 |
| O=C(O)c1cc(S(=O)(=O)Nc2cc(Cl)ccc2F)cc2c1OCCO2 | 23 |
| c1cncc(COCc2nnc3n2CCN(Cc2cccs2)C3)c1 | 12.3 |
| Cc1ccc(C(O)CNC(=O)NCc2c(C)cc(C)[nH]c2=O)cc1 (configuration not stated) | -9.83 |
| Fc1cccnc1Oc1cc(F)c(CN2CCCC2)c(Cl)c1 | 22.4 |
| CC(C)(C)NC(=O)N1CCN2C(=O)OCC2C1 (configuration not stated) | -3.52 |
| CN1CC2(CCN(CCOCCO)CC2)CC(c2ccccc2)C1=O (configuration not stated) | 29.9 |
| COc1ccnc(NC(=O)c2cnccn2)c1 | -7.62 |
| CNC(=O)c1cc(C)n(-c2cccc(OC)c2)c1C | 11 |
| c1cncc(-c2nccc(CN3CCCC3)n2)c1 | 3.79 |
| Cc1nc(N2CCN(C(=O)c3ccc(O)cc3)CC2)c2cnn(C)c2n1 | -18.5 |
| CN1CCN(c2cc(CNC(=O)Cn3cccn3)ccn2)CC1 | 13.6 |
| CC(OCC1CC1)C(=O)Nc1ncccc1I (configuration not stated) | -6.4 |
| O=C(CNC(=O)c1ccc(Cl)cc1)Nc1nccs1 | 20.2 |
| Cc1cnc(-c2nc(C3CCN(C(=O)Cc4ccsc4)CC3)no2)cn1 | 2.59 |
| CN(Cc1ccc(F)cc1)CC1(O)CCN(C(=O)c2ccn(C)n2)C1 (configuration not stated) | -6.54 |
| CCN(C)c1ncnc2c1CCN(C(=O)c1ccno1)CC2 | -7.5 |
| CC(CNC(=O)N1CCSCC1)Cc1cccs1 (configuration not stated) | 4.95 |
| Cc1cnn(CCNCc2csc(-c3ccc(F)cc3)n2)c1 | 3.66 |
| c1cnn(Cc2nnc3n2CCCN(Cc2ccsc2)C3)c1 | 4.58 |
| NC(=O)N1CCCN(C(=O)Nc2cc(-n3cccc3)ccc2F)CC1 | -6.12 |
| O=C(COC1CCCC1)NC(C(=O)Nc1cc[nH]n1)c1ccccc1 (configuration not stated) | 3.78 |

| Compound | cytotoxicity at 70.5 h [%] |
| --- | --- |
| Cc1cc(-c2nn(C)c(Cl)c2CN2CCOCC(O)C2)no1 (configuration not stated) | -11.6 |
| c1cc(-c2cn3nccc3nc2C2CCCCC2)nc(N2CCCC2)n1 | -7.05 |
| CCc1nc(CNCC2CCCN2c2cc(NC)ncn2)cs1 (configuration not stated) | -4.75 |
| COCC1c2c(cnn2CC2CC2)CCN1Cc1cccs1 (configuration not stated) | -2.83 |
| N#Cc1c(N2CCOCC2)nsc1-c1cccnc1 | -4.2 |
| O=S(=O)(c1ccc(F)cc1)N1CC[C@H]2[C@H]1CCN2c1ncccn1 | -2.97 |
| CN1CCC(N(C)C(=O)c2cnc3c(cnn3C3CCCC3)c2)CC1 | -7.87 |
| CCc1cnc(CN(C)C2CCN(CC3CCN(C(C)=O)CC3)C2)o1 (configuration not stated) | 10 |
| NCc1cnn(-c2ccccc2C(=O)NCc2ccccn2)c1 | -5.83 |
| CN1CC[C@@H]2[C@@H](CO[C@H]2CNC(=O)c2nccn2C)C1 | -4.99 |
| C[C@@H]1CN(C2(C(=O)N3CCSCC3)Cc3ccccc3C2)C[C@H](C)O1 | 2.94 |
| Cc1ccc2c(c1C)OCC2NCc1cccc(C#N)c1 (configuration not stated) | 1.34 |
| O[C@H]1[C@H](NCCc2cnccn2)c2ccccc2C12CCNCC2 | -3.75 |
| COc1cc2c(c(OC)c1OC)CCN(CCn1nc(C)cc1C)CC2 | -6.93 |
| CN(C)C(=O)Cn1c2c(ccc1=O)CCN(Cc1cnn(C)c1)CC2 | 2.17 |
| CN1CCC(NC(=O)c2cc(F)cc(Cl)c2O)C1=O (configuration not stated) | -2.94 |
| Cc1noc(CN2Cc3ccccc3CC2c2nnc(C)o2)n1 (configuration not stated) | 4.3 |
| O=C1C[C@H]2[C@H](CCN2C(=O)c2cc[nH]n2)N1Cc1cccnc1 | -9.27 |
| Cc1cc(C(=O)NCc2cccnc2N2CCCC(O)C2)[nH]n1 (configuration not stated) | -16.1 |
| CS(=O)(=O)N1CC[C@@H]2[C@@H](CCC(=O)N2CCC2=CCCCC2)C1 | 16.1 |
